Patent US20240025862A1, “SUBSTITUTED N-PHENYLURACILS AND SALTS THEREOF, AND USE THEREOF AS HERBICIDAL ACTIVE SUBSTANCES” (Bayer Aktiengesellschaft, priority 2020, published 2024)

Tests used:
Assay type in all cases: in vivo
[1] = test system: Triticum aestivum (TRZAS); test: Post-emergence crop plant compatibility, greenhouse pot test; details: vs untreated controls
Summary of the method: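 Values are visual % damage versus untreated controls (100% = plants died) about 3 weeks after treatment. Plants in sandy loam were sprayed at the one-leaf stage, 2–3 weeks after sowing, with aqueous WP/EC preparations plus 0.5% additive at 600 l/ha; a/b/c mark different dose levels.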

[2] = test system: Polygonum convolvulus (POLCO); test: Post-emergence herbicidal action, greenhouse pot test; details: Fallopia convolvulus, 504 h, read-out: Post-emergence action against POLCO in %
Summary of the method: (§1)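 Activity was scored by eye about 3 weeks after treatment against untreated plants, where 100% means dead plants and 0% means no difference. Plants at the one-leaf stage received a foliar spray of WP or EC formulations in water plus 0.5% additive (600 l/ha, up to 20 g/ha). Plants were grown in sandy loam pots in a greenhouse for 2–3 weeks before spraying.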

Avena fatua (AVEFA) = test: as above; details: Avena fatua, 504 h, 20 g/ha, rated visually after about 3 weeks vs untreated controls, 100% = plants have died, read-out: Post-emergence action at 20 g/ha against AVEFA in %
Summary of the method: as §1

[3] = test system: Abutilon theophrasti (ABUTH); test: as above; details: Abutilon theophrasti, 504 h, rated visually after about 3 weeks vs untreated controls, 100% = plants have died
Summary of the method: as §1

[4] = test system: Amaranthus retroflexus (AMARE); test: as above; details: Amaranthus retroflexus, 504 h, rated visually after about 3 weeks vs untreated controls, 100% = plants have died
Summary of the method: as §1

Veronica persica (VERPE) = test: as above; details: Veronica persica, 504 h, read-out: Post-emergence action against VERPE
Summary of the method: as §1

[5] = test system: Pharbitis purpurea (PHBPU); test: as above; details: Ipomoea purpurea, 504 h, read-out: Post-emergence action against PHBPU in %
Summary of the method: as §1

Viola tricolor (VIOTR) = test: as above; details: Viola tricolor, 504 h, read-out: Post-emergence action against VIOTR
Summary of the method: as §1

Setaria viridis (SETVI) = test: Post-emergence herbicidal action, greenhouse pot test (also comparative test C); details: Setaria viridis, 504 h
Summary of the method: (§2)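 Green parts of one-leaf-stage plants are sprayed at 600 l/ha with formulated compound plus 0.5% additive, then kept under optimum greenhouse conditions for about 3 weeks. Damage is scored visually, where 100% means dead plants and 0% means no difference from controls.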

[6] = test system: Alopecurus myosuroides (ALOMY); test: as above; details: Alopecurus myosuroides, 504 h, rated visually after about 3 weeks vs untreated controls, 100% = plants have died
Summary of the method: as §2

[7] = test system: Echinochloa crus-galli (ECHCG); test: as above; details: Echinochloa crus-galli, 504 h, read-out: Post-emergence action against ECHCG in %
Summary of the method: as §2

[8] = test system: Matricaria inodora (MATIN); test: as above; details: Tripleurospermum inodorum, 504 h, read-out: Post-emergence action against MATIN in %
Summary of the method: as §2

Oryza sativa (ORYSA) = test: Post-emergence crop plant compatibility, greenhouse pot test (also comparative test C); details: vs untreated controls
Summary of the method: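 Visual damage versus untreated plants (0% = like control, 100% = plants died) was scored about 3 weeks after a post-emergence spray in greenhouse pots. Treatment: one-leaf stage, WP or EC in water at 600 l/ha with 0.5% additive; a/b/c mark different dosages on the same crop.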

Cn1c(C(F)(F)F)cc(=O)n(-c2cc(Oc3ccccc3OCC(=O)OCC#N)c(Br)cc2F)c1=O [I.8-176, Cyanomethyl (2-{2-bromo-4-fluoro-5-[3-methyl-2,6-dioxo-4-(trifluoromethyl)-3,6-dihydropyrimidin-1(2H)-yl]phenoxy}phenoxy)acetate]
Post-emergence action against TRZAS (crop plant compatibility) ([1]; 1.25 g/ha): 0%
Post-emergence action against TRZAS (crop plant compatibility) ([1]; 5 g/ha): 20%
pest or weed control at 5 g/ha ([2]; dosage 5 g/ha): 80%
pest or weed control at 20 g/ha ([2]; dosage 20 g/ha): 100%
pest or weed control at 20 g/ha (Avena fatua (AVEFA)): 80%
pest or weed control at 1.25 g/ha ([3]; 1.25 g/ha, read-out: Post-emergence action at 1.25 g/ha against ABUTH in %): 100%
pest or weed control at 5 g/ha ([3]; 5 g/ha, read-out: Post-emergence action at 5 g/ha against ABUTH in %): 100%
pest or weed control at 20 g/ha ([3]; 20 g/ha, read-out: Post-emergence action at 20 g/ha against ABUTH in %): 100%
pest or weed control at 1.25 g/ha ([4]; 1.25 g/ha, read-out: Post-emergence action at 1.25 g/ha against AMARE in %): 100%
pest or weed control at 5 g/ha ([4]; 5 g/ha, read-out: Post-emergence action at 5 g/ha against AMARE in %): 100%
pest or weed control at 20 g/ha ([4]; 20 g/ha, read-out: Post-emergence action at 20 g/ha against AMARE in %): 100%
pest or weed control at 1.25 g/ha (Veronica persica (VERPE); 1.25 g/ha): 100%
pest or weed control at 5 g/ha (Veronica persica (VERPE); 5 g/ha): 100%
pest or weed control at 20 g/ha (Veronica persica (VERPE); 20 g/ha): 100%
pest or weed control at 1.25 g/ha ([5]; dosage 1.25 g/ha): 80%
pest or weed control at 5 g/ha ([5]; dosage 5 g/ha): 80%
pest or weed control at 20 g/ha ([5]; dosage 20 g/ha): 100%
pest or weed control at 1.25 g/ha (Viola tricolor (VIOTR); 1.25 g/ha): 90%
pest or weed control at 5 g/ha (Viola tricolor (VIOTR); 5 g/ha): 100%
pest or weed control at 20 g/ha (Viola tricolor (VIOTR); 20 g/ha): 100%
pest or weed control at 20 g/ha (Setaria viridis (SETVI); 20 g/ha, read-out: Post-emergence action against SETVI): 100%
pest or weed control at 1.25 g/ha (Setaria viridis (SETVI); dosage 1.25 g/ha, read-out: Post-emergence action against SETVI in %): 100%
pest or weed control at 5 g/ha (Setaria viridis (SETVI); dosage 5 g/ha, read-out: Post-emergence action against SETVI in %): 100%
pest or weed control at 5 g/ha ([6]; 5 g/ha, read-out: Post-emergence action at 5 g/ha against ALOMY in %): 80%
pest or weed control at 20 g/ha ([6]; 20 g/ha, read-out: Post-emergence action at 20 g/ha against ALOMY in %): 100%
pest or weed control at 5 g/ha ([7]; dosage 5 g/ha): 100%
pest or weed control at 20 g/ha ([7]; dosage 20 g/ha): 100%
pest or weed control at 5 g/ha ([8]; dosage 5 g/ha): 100%
pest or weed control at 20 g/ha ([8]; dosage 20 g/ha): 100%
Post-emergence action against ORYSA (crop plant compatibility) (Oryza sativa (ORYSA); 1.25 g/ha): 0%
Post-emergence action against ORYSA (crop plant compatibility) (Oryza sativa (ORYSA); 5 g/ha): 20%
